Experimental data reported in ChEMBL document CHEMBL1201862, “PubChem BioAssay data set” (2004).
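1) Cells in 96-well plates. 2) Compound, 48 h, 5 concentrations. 3) Linear interpolation between surrounding doses. 4) Unreached endpoint = highest concentration. Abbreviation: GI50, concentration required for 50% inhibition of growth.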 Activity calls are given as the source filed them. Cut-off read from the data, not from the text of the source: active = GI50 up to about 1.1 µM and inactive = higher.

Experiments:
Assay in all cases: growth of human tumour cells (NCI), 48 h
M14 = test system: M14
SF-295 = test system: SF-295
SK-OV-3 = test system: SK-OV-3
RPMI-8226 = test system: RPMI-8226
COLO 205 = test system: COLO 205
SR = test system: SR
SK-MEL-2 = test system: SK-MEL-2
MDA-MB-231 = test system: MDA-MB-231
UACC-257 = test system: UACC-257
MDA-MB-435 = test system: MDA-MB-435
OVCAR-8 = test system: OVCAR-8
UACC-62 = test system: UACC-62
786-0 = test system: 786-0
MDA-N = test system: MDA-N
HCC 2998 = test system: HCC 2998
SF-539 = test system: SF-539
NCI-H460 = test system: NCI-H460
CCRF-CEM = test system: CCRF-CEM
MCF7 = test system: MCF7
SK-MEL-28 = test system: SK-MEL-28

Measured: GI50

Cc1ccc(S(=O)(=O)n2cc(/C=C/C#N)c(-c3cn(S(=O)(=O)c4ccc(C)cc4)cc3-c3cn(S(=O)(=O)c4ccc(C)cc4)cc3/C=C/C#N)c2)cc1
inactive: M14 47 µM | SF-295 44.8 µM | SK-OV-3 > 100 µM | RPMI-8226 17.4 µM | COLO 205 58.7 µM | SR > 100 µM | SK-MEL-2 > 100 µM | MDA-MB-231 18.5 µM | UACC-257 > 100 µM | MDA-MB-435 > 100 µM | OVCAR-8 > 100 µM | UACC-62 > 100 µM | 786-0 > 100 µM | MDA-N > 100 µM

N#C[BH2-][n+]1cn(C2CC(O)C(COP(=O)(O)OC3CC(n4ccc(N)nc4=O)OC3CO)O2)c2nc(N)[nH]c(=O)c21 (centres undefined)
inactive: M14 > 100 µM | SF-295 > 100 µM | HCC 2998 > 100 µM | RPMI-8226 > 100 µM | COLO 205 > 100 µM | SR > 100 µM | SF-539 > 100 µM | SK-MEL-2 > 100 µM | MDA-MB-231 > 100 µM | NCI-H460 > 100 µM | UACC-257 > 100 µM | OVCAR-8 > 100 µM | CCRF-CEM > 100 µM | MCF7 > 100 µM | UACC-62 > 100 µM | 786-0 > 100 µM | MDA-N > 100 µM

CC(C)CN(CC(C)C)C(=O)C1CCCC[C@@H]1C(=O)O (some centres undefined)
inactive: M14 > 100 µM | SK-MEL-28 > 100 µM | SF-295 > 100 µM | SK-OV-3 > 100 µM | HCC 2998 > 100 µM | RPMI-8226 > 100 µM | COLO 205 > 100 µM | SR > 100 µM | SF-539 > 100 µM | SK-MEL-2 > 100 µM | NCI-H460 > 100 µM | UACC-257 > 100 µM | OVCAR-8 > 100 µM | CCRF-CEM > 100 µM | UACC-62 > 100 µM | 786-0 > 100 µM

NS(=O)(=O)c1ccc(NC(=O)COC(=O)c2cccc3c(=O)c4ccccc4[nH]c23)cc1
inactive: M14 61.4 µM | SK-MEL-28 50.8 µM | SF-295 23.9 µM | SK-OV-3 18.9 µM | HCC 2998 39.4 µM | RPMI-8226 > 100 µM | COLO 205 > 88.3 µM | SR 4.03 µM | SF-539 16.3 µM | SK-MEL-2 19.5 µM | NCI-H460 33.8 µM | UACC-257 57.3 µM | OVCAR-8 20.7 µM | CCRF-CEM 38.5 µM | UACC-62 14.6 µM | 786-0 19.2 µM

CSCCC(NC(=O)Cc1ccc(C(=O)c2ccccc2)cc1)C(=O)N1CCN(CCCCN2c3ccccc3Sc3cc(N=[N+]=[N-])ccc32)CC1 (centres undefined)
inactive: SF-295 47.6 µM | SK-OV-3 > 100 µM | HCC 2998 > 100 µM | RPMI-8226 68.1 µM | COLO 205 > 100 µM | SK-MEL-2 > 100 µM | MDA-MB-231 > 100 µM | NCI-H460 > 100 µM | UACC-257 > 100 µM | CCRF-CEM 49.3 µM | MCF7 73.3 µM | UACC-62 > 100 µM | 786-0 > 100 µM

O=S(=O)(O)c1ccc2c(/N=N/c3ccc(Cl)cc3)c(O)ccc2c1
inactive: M14 > 100 µM | SK-MEL-28 > 100 µM | SF-295 > 100 µM | SK-OV-3 > 100 µM | RPMI-8226 > 100 µM | COLO 205 > 100 µM | SK-MEL-2 > 100 µM | MDA-MB-231 > 100 µM | UACC-257 > 100 µM | MDA-MB-435 > 100 µM | OVCAR-8 > 100 µM | CCRF-CEM > 100 µM | UACC-62 > 100 µM | 786-0 > 100 µM | MDA-N > 100 µM

Nc1ccn(C2OC(COP(=O)(O)OCC3OC(n4cc(F)c(=O)[nH]c4=O)CC3O)C(O)C2O)c(=O)n1 (centres undefined)
active: M14 0.183 µM | SF-295 0.0453 µM | SR < 0.01 µM | SF-539 < 0.0439 µM | NCI-H460 < 0.01 µM | CCRF-CEM 0.0161 µM | UACC-62 0.0925 µM
inactive: SK-MEL-28 > 25.5 µM | SK-OV-3 26.7 µM | HCC 2998 87.9 µM | COLO 205 4.68 µM | SK-MEL-2 > 100 µM | UACC-257 > 21.5 µM | MDA-MB-435 1.58 µM | OVCAR-8 1.37 µM | 786-0 1.33 µM | MDA-N 26.4 µM

C[P+](C)(C)C
inactive: M14 > 100 µM | SK-MEL-28 > 100 µM | SF-295 > 100 µM | SK-OV-3 > 100 µM | HCC 2998 > 100 µM | RPMI-8226 > 100 µM | COLO 205 > 100 µM | SR > 100 µM | SF-539 > 100 µM | SK-MEL-2 > 100 µM | NCI-H460 > 100 µM | UACC-257 > 100 µM | OVCAR-8 > 100 µM | CCRF-CEM > 100 µM | UACC-62 > 100 µM | 786-0 > 100 µM

C[P+]1(Cc2ccccc2)CCCC1
inactive: M14 > 100 µM | SK-MEL-28 > 100 µM | SF-295 > 100 µM | SK-OV-3 > 100 µM | HCC 2998 71.1 µM | RPMI-8226 > 100 µM | COLO 205 > 100 µM | SR > 100 µM | SF-539 > 100 µM | SK-MEL-2 > 100 µM | NCI-H460 > 100 µM | UACC-257 > 100 µM | OVCAR-8 > 100 µM | CCRF-CEM > 100 µM | UACC-62 > 100 µM | 786-0 > 100 µM

Cc1nnc(N)nc1/C=C\c1cccs1
inactive: M14 16.2 µM | SK-MEL-28 28.8 µM | SF-295 21.4 µM | SK-OV-3 36.5 µM | HCC 2998 14.6 µM | RPMI-8226 22.4 µM | COLO 205 27.7 µM | SR 16.6 µM | SK-MEL-2 14.6 µM | MDA-MB-231 87.3 µM | NCI-H460 14.7 µM | UACC-257 32.6 µM | MDA-MB-435 18 µM | OVCAR-8 17 µM | CCRF-CEM 16.7 µM | MCF7 13.9 µM | UACC-62 14.9 µM | 786-0 18.6 µM

O=C(C[N+]1(c2ccccc2)CCOCC1)c1ccccc1
inactive: M14 > 100 µM | SF-295 > 100 µM | HCC 2998 > 100 µM | SR 34.8 µM | SK-MEL-2 > 100 µM | MDA-MB-231 > 100 µM | NCI-H460 > 100 µM | UACC-257 72.8 µM | MDA-MB-435 > 100 µM | OVCAR-8 > 100 µM | UACC-62 > 100 µM | 786-0 60.5 µM | MDA-N > 100 µM
active: SK-MEL-28 0.0445 µM

N#Cc1ccc(C2OCC3CC=CCC3CO2)cc1 (centres undefined)
inactive: M14 52.2 µM | SK-MEL-28 78.5 µM | SF-295 48.1 µM | SK-OV-3 > 100 µM | HCC 2998 59.4 µM | RPMI-8226 42.2 µM | COLO 205 80.9 µM | SR 36.1 µM | SF-539 > 100 µM | SK-MEL-2 > 100 µM | NCI-H460 68.7 µM | UACC-257 42.7 µM | OVCAR-8 83.4 µM | CCRF-CEM 44.7 µM | UACC-62 80.7 µM | 786-0 > 100 µM

O=C1Nc2ccccc2/C1=N/Nc1ncccc1[N+](=O)[O-]
inactive: M14 16.3 µM | SK-MEL-28 22.6 µM | SF-295 17.2 µM | SK-OV-3 12.1 µM | RPMI-8226 3.15 µM | SF-539 2.37 µM | SK-MEL-2 20.9 µM | MDA-MB-231 86.9 µM | NCI-H460 16.7 µM | UACC-257 23 µM | MDA-MB-435 16.8 µM | OVCAR-8 17.6 µM | MCF7 3.19 µM | UACC-62 10.6 µM | 786-0 4.84 µM | MDA-N 27.1 µM

O=C(O)C1CCCN1C(=O)c1cc(Cl)ccn1 (centres undefined)
inactive: M14 > 100 µM | SK-MEL-28 > 100 µM | SF-295 > 100 µM | HCC 2998 > 100 µM | RPMI-8226 > 100 µM | COLO 205 > 100 µM | SR > 100 µM | SF-539 > 100 µM | SK-MEL-2 > 100 µM | NCI-H460 > 100 µM | UACC-257 > 100 µM | MDA-MB-435 > 100 µM | OVCAR-8 > 100 µM | CCRF-CEM > 100 µM | MCF7 > 100 µM | UACC-62 > 100 µM | 786-0 > 100 µM | MDA-N > 100 µM

O=C1C=CC(=O)N1Nc1ccc([N+](=O)[O-])cc1[N+](=O)[O-]
inactive: M14 19.9 µM | SK-MEL-28 > 43.4 µM | SF-295 > 100 µM | SK-OV-3 > 100 µM | HCC 2998 > 100 µM | RPMI-8226 > 44.5 µM | COLO 205 > 42.8 µM | SR > 38.5 µM | SF-539 > 100 µM | SK-MEL-2 > 100 µM | NCI-H460 > 100 µM | UACC-257 > 56.2 µM | OVCAR-8 > 100 µM | CCRF-CEM 14 µM | UACC-62 > 100 µM | 786-0 > 70.1 µM

Nc1ccccc1/C=C\c1ccccc1
inactive: M14 > 100 µM | SK-MEL-28 > 100 µM | SF-295 > 100 µM | SK-OV-3 > 100 µM | RPMI-8226 > 100 µM | SF-539 > 100 µM | NCI-H460 > 100 µM | UACC-257 > 100 µM | MDA-MB-435 > 100 µM | OVCAR-8 > 100 µM | CCRF-CEM > 100 µM | MCF7 > 100 µM | UACC-62 > 100 µM | 786-0 > 100 µM | MDA-N > 100 µM

Clc1ccc2c(c1)[nH]c1c2nc2sccn21
inactive: M14 > 100 µM | SK-MEL-28 > 100 µM | SF-295 > 100 µM | SK-OV-3 > 100 µM | HCC 2998 > 100 µM | RPMI-8226 > 100 µM | COLO 205 > 100 µM | SR > 100 µM | SF-539 > 100 µM | SK-MEL-2 > 100 µM | NCI-H460 > 100 µM | UACC-257 > 100 µM | OVCAR-8 > 100 µM | CCRF-CEM > 100 µM | UACC-62 > 100 µM | 786-0 > 100 µM
